Data taken from the CheMixHub viscosity set.

Experiment: xn = mol fraction of the nth substance listed

C1CCCCC1 + c1ccccc1
Conditions | viscosity [mPa·s]
293.15 K, 101 kPa, x2 = 0.094 | 0.893
293.15 K, 101 kPa, x2 = 0.251 | 0.762
293.15 K, 101 kPa, x2 = 0.418 | 0.684
293.15 K, 101 kPa, x2 = 0.582 | 0.649
293.15 K, 101 kPa, x2 = 0.736 | 0.628
293.15 K, 101 kPa, x2 = 0.891 | 0.636
293.15 K, 101.32 kPa, x1 = 0.069 | 0.634
293.15 K, 101.33 kPa, x1 = 0.4 | 0.6789
293.65 K, 101.33 kPa, x1 = 0.1 | 0.6528
293.85 K, 101.33 kPa, x1 = 0.3 | 0.6581
294.35 K, 101.33 kPa, x1 = 0.7 | 0.7579
294.55 K, 101.33 kPa, x1 = 0.85 | 0.8416
294.85 K, 101.33 kPa, x1 = 0.6 | 0.7104
296.05 K, 101.33 kPa, x1 = 0.2 | 0.631
298 K, 101 kPa, x1 = 0.077 | 0.654
298 K, 101 kPa, x1 = 0.1226 | 0.654
298 K, 101 kPa, x1 = 0.1659 | 0.657
298 K, 101 kPa, x1 = 0.1692 | 0.66
298 K, 101 kPa, x1 = 0.2368 | 0.665
298 K, 101 kPa, x1 = 0.2613 | 0.669
298 K, 101 kPa, x1 = 0.2942 | 0.678
298 K, 101 kPa, x1 = 0.2951 | 0.674
298 K, 101 kPa, x1 = 0.6686 | 0.787
298.1 K, 101 kPa, x1 = 0.2 | 0.581
298.1 K, 101 kPa, x1 = 0.4 | 0.588
298.1 K, 101 kPa, x1 = 0.5 | 0.606
298.1 K, 101 kPa, x1 = 0.6 | 0.629
298.1 K, 101 kPa, x1 = 0.8 | 0.702
298.15 K, 100 kPa, x2 = 0.2504 | 0.7321
298.15 K, 100 kPa, x2 = 0.4997 | 0.6299
298.15 K, 100 kPa, x2 = 0.7497 | 0.575
298.15 K, 101 kPa, x1 = 0.0407 | 0.5938
298.15 K, 101 kPa, x1 = 0.0977 | 0.5871
298.15 K, 101 kPa, x1 = 0.1489 | 0.5839
298.15 K, 101 kPa, x1 = 0.1991 | 0.581
298.15 K, 101 kPa, x1 = 0.2609 | 0.5691
298.15 K, 101 kPa, x1 = 0.3011 | 0.5852
298.15 K, 101 kPa, x1 = 0.3095 | 0.574
298.15 K, 101 kPa, x1 = 0.3586 | 0.5843
298.15 K, 101 kPa, x1 = 0.3991 | 0.5953
298.15 K, 101 kPa, x1 = 0.4089 | 0.5884
298.15 K, 101 kPa, x1 = 0.4513 | 0.6073
298.15 K, 101 kPa, x1 = 0.4887 | 0.5861
298.15 K, 101 kPa, x1 = 0.4987 | 0.6127
298.15 K, 101 kPa, x1 = 0.5798 | 0.6263
298.15 K, 101 kPa, x1 = 0.5965 | 0.6256
298.15 K, 101 kPa, x1 = 0.6017 | 0.6403
298.15 K, 101 kPa, x1 = 0.6481 | 0.6489
298.15 K, 101 kPa, x1 = 0.6986 | 0.6783
298.15 K, 101 kPa, x1 = 0.7128 | 0.6954
298.15 K, 101 kPa, x1 = 0.8006 | 0.7301
298.15 K, 101 kPa, x1 = 0.8959 | 0.7929
298.15 K, 101 kPa, x1 = 0.9313 | 0.8219
298.15 K, 101 kPa, x1 = 0.9638 | 0.8484
298.15 K, 101 kPa, x2 = 0.0136 | 0.8732
298.15 K, 101 kPa, x2 = 0.1 | 0.7978
298.15 K, 101 kPa, x2 = 0.1043 | 0.8022
298.15 K, 101 kPa, x2 = 0.2 | 0.734
298.15 K, 101 kPa, x2 = 0.2011 | 0.7423
298.15 K, 101 kPa, x2 = 0.203 | 0.7292
298.15 K, 101 kPa, x2 = 0.2438 | 0.7115
298.15 K, 101 kPa, x2 = 0.3015 | 0.6869
298.15 K, 101 kPa, x2 = 0.31 | 0.6772
298.15 K, 101 kPa, x2 = 0.4 | 0.641
298.15 K, 101 kPa, x2 = 0.4038 | 0.6514
298.15 K, 101 kPa, x2 = 0.441 | 0.6283
298.15 K, 101 kPa, x2 = 0.5005 | 0.6313
298.15 K, 101 kPa, x2 = 0.549 | 0.6011
298.15 K, 101 kPa, x2 = 0.6 | 0.593
298.15 K, 101 kPa, x2 = 0.6032 | 0.6107
298.15 K, 101 kPa, x2 = 0.611 | 0.595
298.15 K, 101 kPa, x2 = 0.7006 | 0.5985
298.15 K, 101 kPa, x2 = 0.733 | 0.5877
298.15 K, 101 kPa, x2 = 0.7848 | 0.574
298.15 K, 101 kPa, x2 = 0.7996 | 0.6
298.15 K, 101 kPa, x2 = 0.8 | 0.587
298.15 K, 101 kPa, x2 = 0.883 | 0.5923
298.15 K, 101 kPa, x2 = 0.9011 | 0.609
298.15 K, 101.33 kPa, x1 = 0.0984 | 0.582
298.15 K, 101.33 kPa, x1 = 0.1986 | 0.576
298.15 K, 101.33 kPa, x1 = 0.3009 | 0.579
298.15 K, 101.33 kPa, x1 = 0.4008 | 0.589
298.15 K, 101.33 kPa, x1 = 0.4989 | 0.609
298.15 K, 101.33 kPa, x1 = 0.552 | 0.623
298.15 K, 101.33 kPa, x1 = 0.6007 | 0.639
298.15 K, 101.33 kPa, x1 = 0.6478 | 0.653
298.15 K, 101.33 kPa, x1 = 0.7475 | 0.699
298.15 K, 101.33 kPa, x1 = 0.8011 | 0.733
298.15 K, 101.33 kPa, x1 = 0.9022 | 0.803
298.15 K, 101.33 kPa, x2 = 0.1282 | 0.7622
298.15 K, 101.33 kPa, x2 = 0.15 | 0.7725
298.15 K, 101.33 kPa, x2 = 0.2174 | 0.7122
298.15 K, 101.33 kPa, x2 = 0.2438 | 0.7115
298.15 K, 101.33 kPa, x2 = 0.3364 | 0.6599
298.15 K, 101.33 kPa, x2 = 0.35 | 0.6571
298.15 K, 101.33 kPa, x2 = 0.4874 | 0.6124
298.15 K, 101.33 kPa, x2 = 0.5 | 0.612
298.15 K, 101.33 kPa, x2 = 0.549 | 0.6011
298.15 K, 101.33 kPa, x2 = 0.647 | 0.5879
298.15 K, 101.33 kPa, x2 = 0.65 | 0.5853
298.15 K, 101.33 kPa, x2 = 0.7814 | 0.583
298.15 K, 101.33 kPa, x2 = 0.7848 | 0.574
298.15 K, 101.33 kPa, x2 = 0.9 | 0.5761
298.15 K, 101.33 kPa, x2 = 0.9033 | 0.5926
303.15 K, 101 kPa, x1 = 0.0989 | 0.5467
303.15 K, 101 kPa, x1 = 0.1983 | 0.5433
303.15 K, 101 kPa, x1 = 0.3019 | 0.5485
303.15 K, 101 kPa, x1 = 0.3998 | 0.5602
303.15 K, 101 kPa, x1 = 0.5035 | 0.5792
303.15 K, 101 kPa, x1 = 0.6015 | 0.6041
303.15 K, 101 kPa, x1 = 0.7002 | 0.6378
303.15 K, 101 kPa, x1 = 0.7987 | 0.6822
303.15 K, 101 kPa, x1 = 0.8977 | 0.7447
303.15 K, 101 kPa, x2 = 0.094 | 0.755
303.15 K, 101 kPa, x2 = 0.1043 | 0.7412
303.15 K, 101 kPa, x2 = 0.2011 | 0.6892
303.15 K, 101 kPa, x2 = 0.251 | 0.658
303.15 K, 101 kPa, x2 = 0.3015 | 0.6418
303.15 K, 101 kPa, x2 = 0.4038 | 0.6099
303.15 K, 101 kPa, x2 = 0.418 | 0.594
303.15 K, 101 kPa, x2 = 0.5005 | 0.5913
303.15 K, 101 kPa, x2 = 0.582 | 0.566
303.15 K, 101 kPa, x2 = 0.6032 | 0.5734
303.15 K, 101 kPa, x2 = 0.7006 | 0.5632
303.15 K, 101 kPa, x2 = 0.736 | 0.55
303.15 K, 101 kPa, x2 = 0.7996 | 0.5634
303.15 K, 101 kPa, x2 = 0.891 | 0.555
303.15 K, 101 kPa, x2 = 0.9011 | 0.5689
303.45 K, 101.33 kPa, x1 = 0.7 | 0.6645
303.55 K, 101.33 kPa, x1 = 0.5 | 0.6035
303.65 K, 101.33 kPa, x1 = 0.4 | 0.5874
303.75 K, 101.33 kPa, x1 = 0.3 | 0.5794
304.25 K, 101.33 kPa, x1 = 0.85 | 0.7288
304.55 K, 101.33 kPa, x1 = 0.6 | 0.6189
306.35 K, 101.33 kPa, x1 = 0.2 | 0.5538
308.15 K, 101 kPa, x2 = 0.1043 | 0.6842
308.15 K, 101 kPa, x2 = 0.2011 | 0.6409
308.15 K, 101 kPa, x2 = 0.3015 | 0.5971
308.15 K, 101 kPa, x2 = 0.4038 | 0.5697
308.15 K, 101 kPa, x2 = 0.5005 | 0.5535
308.15 K, 101 kPa, x2 = 0.6032 | 0.537
308.15 K, 101 kPa, x2 = 0.7006 | 0.5274
308.15 K, 101 kPa, x2 = 0.7996 | 0.5266
308.15 K, 101 kPa, x2 = 0.9011 | 0.5325
312.15 K, 101.33 kPa, x1 = 0.1 | 0.5154
312.65 K, 101.33 kPa, x1 = 0.4 | 0.5272
312.65 K, 101.33 kPa, x1 = 0.5 | 0.5397
312.75 K, 101.33 kPa, x1 = 0.3 | 0.5184
312.85 K, 101.33 kPa, x1 = 0.6 | 0.5535
313.15 K, 101 kPa, x2 = 0.094 | 0.651
313.15 K, 101 kPa, x2 = 0.1043 | 0.6342
313.15 K, 101 kPa, x2 = 0.2011 | 0.5944
313.15 K, 101 kPa, x2 = 0.251 | 0.574
313.15 K, 101 kPa, x2 = 0.3015 | 0.5574
313.15 K, 101 kPa, x2 = 0.4038 | 0.5315
313.15 K, 101 kPa, x2 = 0.418 | 0.53
313.15 K, 101 kPa, x2 = 0.5005 | 0.5172
313.15 K, 101 kPa, x2 = 0.582 | 0.499
313.15 K, 101 kPa, x2 = 0.6032 | 0.5037
313.15 K, 101 kPa, x2 = 0.7006 | 0.494
313.15 K, 101 kPa, x2 = 0.736 | 0.489
313.15 K, 101 kPa, x2 = 0.7996 | 0.4952
313.15 K, 101 kPa, x2 = 0.891 | 0.49
313.15 K, 101 kPa, x2 = 0.9011 | 0.4973
313.25 K, 101.33 kPa, x1 = 0.2 | 0.5122
314.15 K, 101.33 kPa, x1 = 0.85 | 0.6325
315.75 K, 101.33 kPa, x1 = 0.7 | 0.5676
322.55 K, 101.33 kPa, x1 = 0.6 | 0.5006
322.85 K, 101.33 kPa, x1 = 0.85 | 0.567
322.95 K, 101.33 kPa, x1 = 0.1 | 0.4571
322.95 K, 101.33 kPa, x1 = 0.4 | 0.4739
323.15 K, 100 kPa, x2 = 0.2504 | 0.5258
323.15 K, 100 kPa, x2 = 0.4997 | 0.4555
323.15 K, 100 kPa, x2 = 0.7497 | 0.4303
323.15 K, 101 kPa, x2 = 0.094 | 0.567
323.15 K, 101 kPa, x2 = 0.251 | 0.506
323.15 K, 101 kPa, x2 = 0.418 | 0.471
323.15 K, 101 kPa, x2 = 0.582 | 0.445
323.15 K, 101 kPa, x2 = 0.736 | 0.442
323.15 K, 101 kPa, x2 = 0.891 | 0.438
